# Experimental data reported in patent US4987139A, “FK-520 microbial transformation product” (Merck & Co., Inc., priority 1989, dated 1991).
# Entries after “also recorded” stand apart in the source; their conditions may differ. Where two headings read alike, the source gives them in different places.
# Assays:
# [1] = reputed; EPO Publication No. 0184162; cited from earlier work
# mouse T lymphocytes = assay: T-cell proliferation assay (ionomycin plus PMA induced T-cell stimulation, tritiated thymidine uptake); type: cell-based, mouse (C57B1/6); settings: for IC50: T-cell proliferation
# Protocol: The principle of this assay is to measure the proliferation of mouse T lymphocytes stimulated with the combination of ionomycin plus PMA. A positive sample in this assay will inhibit T-cell proliferation, as indicated by reduced tritiated thymidine uptake.
# Purified L-687,795, as prepared by HPLC above, was dissolved in absolute ethanol at 10 mg/ml.
# Spleens from C57B1/6 mice were taken under sterile conditions and gently dissociated in ice-cold RPMI 1640 culture medium (GIBCO, Grand Island, N.Y.) supplemented with 10% heat-inactivated fetal calf serum (GIBCO). Cells were pelleted by centrifugation at 1500 rpm for 8 minutes. Contaminating red cells were removed by treating the pellet with ammonium chloride lysing buffer (GIBCO) for 2 minutes at 4° C. Cold medium was added and cells were again centrifuged at 1500 rpm for 8 minutes. T lymphocytes were then isolated by separation of the cell suspension on nylon wool columns as follows: Nylon wool columns were prepared by packing approximately 4 grams of washed and dried nylon wool into 20 ml plastic syringes. The columns were sterilized by autoclaving at 250° F for 30 minutes. Nylon wool columns were wetted with warm (37° C) culture medium and rinsed with the same medium. Washed spleen cells resuspended in warm medium were slowly applied to the nylon wool. The columns were then incubated in an upright position at 37° C for 1 hour. Non-adherent T lymphocytes were eluted from the columns with warm culture medium and the cell suspensions were spun as above.
# Purified T lymphocytes were resuspended at 2.5×10^5 cells/ml in complete culture medium composed of RPMI 1640 medium with 10% heat-inactivated fetal calf serum, […], 1 mM sodium pyruvate, 2×10^-5 M 2-mercaptoethanol and 50 μg/ml gentamycin. Ionomycin was added at 250 ng/ml and PMA at 10 ng/ml. The cell suspension was immediately distributed into 96 well flat-bottom microculture plates (Costar) at 200 μl/well. The control, being the medium without test drug, and various below-indicated dilutions of the sample (above-describedpurified L-687,795) to be tested were then added in triplicate wells at 20 μl/well. L-683,590 was used as a standard. The culture plates were then incubated at 37° C. in a humidified atmosphere of 5% CO2 -95% air for 44 hours. The proliferation of T lymphocytes was assessed by measurement of tritiated thymidine incorporation. After 44 hours of culturing, the cells were pulse-labelled with 2 μ Ci/well of tritiated thymidine (NEN, Cambridge, MA). After another 4 hours of incubation, cultures were harvested on glass fiber filters using a multiple sample harvester. Radioactivity of filter discs corresponding to individual wells was measured by standard liquid scintillation counting methods (Betacounter). Mean counts per minute of replicate wells were calculated and the results expressed as percent inhibition of tritiated thymidine uptake (proliferation) as follows: [formula]
# 1. Mouse T cell cultures were pulsed with ^3 Hthymidine for 4 hours
# prior to harvesting at 48 hours.
# [2] = Solubility (physical characteristics); type: physicochemical; settings: methanol
smiles,measurement,setting,value
C=CC[C@@H]1/C=C(\C)C[C@H](C)C[C@H](OC)[C@H]2O[C@@](O)(C(=O)C(=O)N3CCCC[C@H]3C(=O)O[C@H](/C(C)=C/[C@@H]3CC[C@@H](O)[C@H](OC)C3)[C@H](C)[C@@H](O)CC1=O)[C@H](C)C[C@@H]2OC [FK-506],times more effective than cyclosporin,[1],100 times
"CC[C@@H]1/C=C(\C)C[C@H](C)C[C@H](OC)[C@H]2O[C@@](O)(C(=O)C(=O)N3CCCC[C@H]3C(=O)O[C@H](/C(C)=C/[C@@H]3CC[C@@H](O)[C@H](OC)C3)[C@H](C)[C@@H](O)CC1=O)[C@H](C)C[C@@H]2OC [L-683,590, reference compound]",inhibition at 0.01 µg/mL,"mouse T lymphocytes; Mus musculus, T-lymphocyte, 10 ng/ml, standard",99%
"CCC1C=C(C)CC(C)CC(O)C(O)C2CC(C)C(O)(O2)C(=O)C(=O)N2CCCCC2C(=O)OC(C(C)=CC2CCC(O)C(O)C2)C(C)C(O)CC1=O [L-687,795]",Inhibition of proliferation on addition of recombinant human IL2,mouse T lymphocytes; 50 units/m recombinant human IL2 added at initiation of culture,reversed
same,inhibition at 0.39 µg/mL,"mouse T lymphocytes; Mus musculus, T-lymphocyte, 390 ng/ml, ionomycin + PMA, 48 h",0%
same,inhibition at 0.57 µg/mL,"mouse T lymphocytes; Mus musculus, T-lymphocyte, 570 ng/ml, ionomycin + PMA, 48 h",2%
same,inhibition at 0.87 µg/mL,"mouse T lymphocytes; Mus musculus, T-lymphocyte, 870 ng/ml, ionomycin + PMA, 48 h",29%
same,inhibition at 1.3 µg/mL,"mouse T lymphocytes; Mus musculus, T-lymphocyte, 1,300 ng/ml, ionomycin + PMA, 48 h",60%
same,inhibition at 1.9 µg/mL,"mouse T lymphocytes; Mus musculus, T-lymphocyte, 1,900 ng/ml, ionomycin + PMA, 48 h",78%
same,inhibition at 2.9 µg/mL,"mouse T lymphocytes; Mus musculus, T-lymphocyte, 2,900 ng/ml, ionomycin + PMA, 48 h",81%
same,inhibition at 4.4 µg/mL,"mouse T lymphocytes; Mus musculus, T-lymphocyte, 4,400 ng/ml, ionomycin + PMA, 48 h",88%
same,inhibition at 6.6 µg/mL,"mouse T lymphocytes; Mus musculus, T-lymphocyte, 6,600 ng/ml, ionomycin + PMA, 48 h",90%
same,inhibition at 10 µg/mL,"mouse T lymphocytes; Mus musculus, T-lymphocyte, 10,000 ng/ml, ionomycin + PMA, 48 h",91%
same,IC50,"mouse T lymphocytes; Mus musculus, T-lymphocyte, general range, read-out: IC50, generally in the range of",1000 to 1400 nM
same,IC50,"mouse T lymphocytes; Mus musculus, T-lymphocyte, read-out: IC50",1190 nM
same,inhibition of T-cell activation / immunosuppressive activity by the T-cell proliferation assay,mouse T lymphocytes; qualitative,positive inhibition of T-cell activation; also recorded: positive immunosuppressive activity
same,Solubility,[2],Solubility in methanol
